Experimental data taken from patent publication US20120252896A1, “METHODS AND COMPOSITIONS FOR MODULATION OF T-CELLS VIA THE KYNURENINE PATHWAY” (priority 2009, published 2012).
Where two headings read alike, the source gives them in different places.

Experiments:
[1] = tested on: Th17 cells (CD4+ T cells under Th17 differentiating conditions; IL-17 production); experiment: IL-17 production by differentiating Th17 cells in vitro (ELISA); type: cell-based, mouse (C57BL/6); settings: Mus musculus
[2] = tested on: Th1 cells (IFNγ production); experiment: IFNγ production by differentiating Th1 cells in vitro (ELISA); type: cell-based, mouse (C57BL/6); settings: Mus musculus
[3] = tested on: differentiating Th1 cells; experiment: Inhibition of IFNγ production during Th1 differentiation (ELISA); type: cell-based, C57BL/6 mice; settings: differentiating Th1 cells in vitro, 6 days of culture, average ±S.E.
Method: For comparison studies with Th1 cells, T cells were differentiated in the same in vitro conditions, with only anti-murine IL-4 neutralizing antibody, recombinant murine IL-2 (10 ng/ml, eBioscience) and recombinant murine IL-12p70 (20 ng/ml, BD Biosciences) and CD3/CD28 stimulation. The concentration of IFN in culture supernatants was measured by ELISA (BD Biosciences). L-kynurenine, 3′-hydroxy-DL-kynurenine, 3′-hydroxyanthranilic acid, anthranilic acid and quinolinic acid (Sigma) were dissolved in RPMI medium under agitation at 1 mM concentration and sterile filtered. Tryptophan metabolites were added individually or in combination, in twofold dilutions, to the differentiating medium of Th1 or Th17 cells for the 6 days of culture.

[4] = tested on: differentiating Th17 cells; experiment: Inhibition of IL-17 production by CD4+ T cells under Th17 differentiating conditions (ELISA); type: cell-based, C57BL/6 mice; settings: for IC50 Th17 (IL-17 production): differentiating Th17 cells in vitro, 6 days of culture, average ±S.E.; for inhibitory effect on IL-17 production: within the range of concentrations assayed
[5] = 144 h, Table II, differentiating Th17 cells, 6 days, average ± S.E., read-out: IC50, IL-17 production, Th17
[6] = Th17 differentiating conditions, read-out: IC50, IL-17 production
[7] = 144 h, Table II, differentiating Th1 cells, 6 days, average ± S.E., read-out: IC50, IFNγ production, Th1

Compound	IC50 [1, 5]	IC50 [1, 6]	IC50 [2, 7]	IC50 ([2]; read-out: IC50, IFNγ production during Th1 differentiation)	IC50 Th1 (IFNγ production) [3]	IC50 Th17 (IL-17 production) [4]	inhibitory effect on IL-17 production [4]	IC50 ([3]; Mus musculus, 144 h)
Nc1c(O)cccc1C(=O)O [3′-Hydroxyanthranilic acid, 3′-hydroxyanthranilic acid]	27.7 ± 3.7 µM	27.7 ± 3.7 µM	57.6 ± 1 µM	57.6 ± 1 µM				
Nc1ccccc1C(=O)O [Anthranilic acid, anthranilic acid]					No inhibition	No inhibition	no inhibitory effect	
Nc1c(O)cccc1C(=O)CC(N)C(=O)O (racemic) [3′-Hydroxy-DL-kynurenine, 3′-hydroxy-DL-kynurenine]	68.1 ± 1.4 µM	68.1 ± 1.4 µM	153.8 ± 1.1 µM					
Nc1ccccc1C(=O)C[C@H](N)C(=O)O [L-Kynurenine, L-kynurenine]	100.8 ± 1 µM	100.8 ± 1 µM	154.4 ± 1.2 µM					
O=C(O)c1cccnc1C(=O)O [Quinolinic acid, quinolinic acid]						No inhibition	no inhibitory effect	112 ± 1.4 µM
